This passage reports TGI and GI50 results from PubChem BioAssay (NCI).

What all share (experiment): growth of human tumour cells (NCI), 48 h
Assay [1] relates to NCI/ADR-RES ovarian.
Assay [2] relates to SNB-19 CNS.
Assay [3] deals with NCI-H226 lung.
Assay [4] concerns HCT-116 colon.
The test system of assay [5] is 786-0 renal.
The test system of assay [6] is T-47D breast.
For assay [7], the system named is OVCAR-4 ovarian.
For assay [8], the system named is KM12 colon.
In assay [9] the test system is OVCAR-5 ovarian.
The test system of assay [10] is SW-620 colon.
The test system of assay [11] is IGROV1 ovarian.
The subject of assay [12] is MCF7 breast.
In assay [13] the test system is CAKI-1 renal.
Assay [14] deals with HT29 colon.
Assay [15] has as its system SK-OV-3 ovarian.
Assay [16] concerns SF-268 CNS.
Assay [17] concerns K-562 leukemia.

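Compound exposure: 48 hours, 5 concentrations, 96-well plates. GI50 is the concentration that inhibits growth by half. The concentration for full growth arrest is given as TGI.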

`O=C1NC(=O)c2ccccc2/C1=C/c1ccc2c(c1)OCO2`: the TGI is 69.2 µM in assay [1]; more than 100 µM in assay [2]; more than 100 µM in [3]; 22.5 µM in assay [4]; more than 100 µM in assay [5]; more than 100 µM in [6]. In addition, the TGI in assay [7] was more than 100 µM; in [8], 41 µM; in [9] it was more than 100 µM; in assay [10], more than 100 µM; in assay [11], 60.9 µM; in assay [12], more than 100 µM. For the same compound, the TGI in assay [13] is 98.4 µM; in assay [14], 44.8 µM; in assay [15], more than 100 µM; in assay [16] it was 82.1 µM.
In the case of `CC1CC/C(=C\c2ccc(F)cc2)C2=C1C(c1ccc(F)cc1)N1C(=O)CSC1=N2` (stereo unspecified), the TGI in assay [1], in assay [2], in assay [3], in assay [17], in assay [4] and in assay [5] was more than 100 µM throughout. Also, the TGI in assay [6], in assay [8], in assay [10], in assay [11], in assay [12] and in assay [13] was more than 100 µM throughout. Moreover, the TGI in [14], in [15] and in [16] was more than 100 µM in each case.
`Cc1cc(C)c2c(c1)CC1(Cc3cc(C)c(C)cc3C1=O)C2=O` (stereo unspecified): the TGI in assay [1], in assay [2], in assay [3], in assay [17], in assay [5] and in [6] was more than 100 µM in each case. Further, the TGI in assay [7], in assay [8], in [9], in [10], in [11] and in assay [12] was more than 100 µM in each case. Besides, the TGI in [13] and in assay [16] was more than 100 µM throughout.
For `Nc1cc2c(c3ccccc13)C(CCl)CN2C(=O)c1cc2cc(NC(=O)Nc3ccc4[nH]c(C(=O)N5CC(CCl)c6c5cc(N)c5ccccc65)cc4c3)ccc2[nH]1` (stereo unspecified), the TGI in assay [1] is 39.4 µM; in [3], 1.81 µM; in [17], more than 100 µM; in assay [4] it was 1.13 µM; in assay [5], 0.258 µM; in assay [6], 1.34 µM. The TGI is more than 100 µM in assay [7]; 3.22 µM in [8]; 4.22 µM in assay [9]; 2.07 µM in assay [10]; 1.4 µM in assay [11]; 1.4 µM in [12]. Moreover, the TGI in assay [13] was 0.444 µM; in assay [14] it was 2.01 µM; in assay [15], more than 24.3 µM; in assay [16], 8.15 µM.
For the compound `CC1CC[C@@]2(OC1)O[C@H]1[C@H](O)[C@H]3[C@@H]4CC[C@H]5C[C@@H](OC6OC(CO)C(OC7OC(CO)C(O)C(OC8OCC(O)C(O)C8O)C7OC7OC(CO)C(O)C(O)C7OC7OC(CO)C(O)C(O)C7O)C(O)C6O)[C@H](O)C[C@]5(C)[C@H]4CC[C@]3(C)[C@H]1[C@@H]2C` (stereo partly specified), the TGI is more than 10 µM in assay [1]; more than 10 µM in assay [2]; more than 10 µM in [3]; more than 10 µM in assay [17]; more than 10 µM in assay [4]; 9.37 µM in assay [5]. For the same compound, the TGI in assay [6], in assay [7], in assay [8], in assay [9], in assay [10] and in [11] was more than 10 µM in each case. The TGI in [12] was 7.71 µM; in assay [13], more than 10 µM; in assay [14] it was more than 10 µM; in assay [16], more than 10 µM.
For `Clc1sc(Cl)c2c1[C@@H](Cl)C[C@@H]2Cl`, the TGI in assay [1], in assay [3], in assay [17], in assay [4], in [5] and in assay [6] was more than 100 µM in each case. In addition, the TGI in assay [7], in [8], in assay [9], in assay [10], in assay [11] and in assay [12] was more than 100 µM in each case. Besides, the TGI in assay [13], in assay [14], in [15] and in [16] was more than 100 µM throughout.
In the case of `CCn1c(=O)c2nc(SC)sc2n(-c2ccc(C)cc2)c1=O`, the TGI in assay [1], in [2], in assay [3], in [17], in assay [4] and in [6] was more than 100 µM each time. The TGI in assay [7], in assay [8], in assay [9], in assay [10], in [11] and in [12] was more than 100 µM in each case. For the same compound, the TGI in assay [13], in assay [14], in assay [15] and in assay [16] was more than 100 µM in each case. Also, the GI50 in assay [13] is more than 100 µM.
For the compound `COc1ccccc1-n1c(=O)n(C)c(=O)n1C(C)(C)C`, the TGI in [1], in assay [2], in assay [3], in assay [17], in assay [4] and in assay [5] was more than 100 µM in each case. Also, the TGI in assay [6], in assay [7], in [8], in [9], in [10] and in [12] was more than 100 µM each time. Besides, the TGI in [13], in [14], in assay [15] and in assay [16] was more than 100 µM throughout.
